Measured values taken from patent US20040132707A1, “Catecholate beta-lactam conjugates, method for producing the same and the use thereof” (Gruenenthal GmbH, priority 2001, published 2004).
≈ marks a conversion by molar mass, not a printed value.

How the values were obtained:
Experiment in all cases: Microdilution MIC assay (NCCLS M7-A)
Format in all cases: cell-based
[1] = tested on: Escherichia coli ATCC 25922; settings: strain ATCC 25922
Protocol: (§1) The antibacterial activity was tested by a microdilution assay according to National Committee for Clinical Laboratory Standards, 1998, Methods for dilution antimicrobial susceptibility tests for bacteria that grow aerobically, Approved standard M7-A, NCCLS, Villanova, Pa.
(§2) The minimal inhibition concentrations (MICs) were determined for the following bacterial strains: The Gram-negative strains Pseudomonas aeruginosa SG 137, ATCC 27853, Escherichia coli ATCC 25922, Klebsiella pneumoniae ATCC 10031, Stenotrophomonas maltophilia GN 12873, Serratia marcescens SG 621 as well as for the Gram-positive strain Staphylococcus aureus SG 511.

[2] = tested on: Klebsiella pneumoniae ATCC 10031; settings: strain ATCC10031
Protocol: as §1, §2

[3] = tested on: Pseudomonas aeruginosa ATCC 27853; settings: strain ATCC 27853
Protocol: as §1, §2

[4] = tested on: Pseudomonas aeruginosa SG 137; settings: strain SG137
Protocol: as §1, §2

[5] = tested on: Serratia marcescens SG 621; settings: strain SG621
Protocol: as §1, §2

[6] = tested on: Staphylococcus aureus SG 511; settings: strain SG511
Protocol: as §1, §2

[7] = tested on: Stenotrophomonas maltophilia GN 12873; settings: strain GN12873
Protocol: as §1, §2

Row | SMILES | MIC E. coli ATCC 25922 [1] | MIC Klebsiella pneumoniae ATCC10031 [2] | MIC Pseudomonas aeruginosa ATCC 27853 [3] | MIC Pseudomonas aeruginosa SG137 [4] | MIC Serratia marc. SG621 [5] | MIC Staph. aureus SG511 [6] | MIC Stenotroph. maltoph. GN12873 [7] | MIC ([1]; Escherichia coli, ATCC25922, read-out: MIC E. coli ATCC 25922) | MIC ([2]; Klebsiella pneumoniae) | MIC ([3]; Pseudomonas aeruginosa, ATCC27853) | MIC ([4]; Pseudomonas aeruginosa) | MIC ([5]; Serratia marcescens, read-out: MIC Serratia marc. SG621) | MIC ([6]; Staphylococcus aureus, read-out: MIC Staph. aureus SG511) | MIC ([7]; Stenotrophomonas maltophilia, read-out: MIC Stenotroph. maltoph. GN12873)
1 | COc1ccc(CN(CCCCNC(=O)c2cccc(OC(C)=O)c2OC(C)=O)C(=O)c2cccc(OC(C)=O)c2OC(C)=O)c(C(=O)N[C@@H](C(=O)N[C@@H]2C(=O)N3[C@@H]2SC(C)(C)[C@@H]3C(=O)O)c2ccccc2)c1OC [Example 21, N-{6-[2,7-Bis-(2,3-Diacetoxybenzoyl)-2,7-diaza-heptyl]-2,3-dimethoxy-benzoyl}-ampicillin] | 3.12 µg/mL (≈ 2.96 µM) | 0.4 µg/mL (≈ 0.379 µM) | 12.5 µg/mL (≈ 11.9 µM) | 0.78 µg/mL (≈ 0.74 µM) | 1.56 µg/mL (≈ 1.48 µM) | 0.2 µg/mL (≈ 0.19 µM) | 0.2 µg/mL (≈ 0.19 µM) |  |  |  |  |  |  | 
2 | COC(=O)Oc1cc(Cl)cc(C(=O)N(C)CCCN(CC(=O)NC(C(=O)NC2C(=O)N3C2SC(C)(C)C3C(=O)O)c2ccccc2)C(=O)c2cc(Cl)cc(OC(=O)OC)c2OC(=O)OC)c1OC(=O)OC (centres unmarked) [Example 7, N-[3,7-Bis-(5-chlor-2,3-dimethoxycarbonyloxybenzoyl)-3,7-diaza-octanoyl]-ampicillin] | 0.05 µg/mL (≈ 0.0476 µM) | <0.005 µg/mL | 0.1 µg/mL (≈ 0.0952 µM) | <0.005 µg/mL | 0.02 µg/mL (≈ 0.019 µM) | 12.5 µg/mL (≈ 11.9 µM) | 0.02 µg/mL (≈ 0.019 µM) |  |  |  |  |  |  | 
3 | CC(=O)Oc1cccc(C(=O)NCCN(CC(=O)N[C@@H](C(=O)N[C@@H]2C(=O)N3[C@@H]2SC(C)(C)[C@@H]3C(=O)O)c2ccccc2)C(=O)c2cccc(OC(C)=O)c2OC(C)=O)c1OC(C)=O [Example 26, N-[3,6-Bis-(2,3-diacetoxybenzoyl)-3,6-diaza-hexanoyl]-ampicillin] | 0.78 µg/mL (≈ 0.877 µM) | 0.1 µg/mL (≈ 0.112 µM) | 0.78 µg/mL (≈ 0.877 µM) | 0.4 µg/mL (≈ 0.449 µM) | 0.78 µg/mL (≈ 0.877 µM) | 3.12 µg/mL (≈ 3.51 µM) | 0.78 µg/mL (≈ 0.877 µM) |  |  |  |  |  |  | 
4 | CC(=O)Oc1cccc(C(=O)NCCN(CCNC(=O)c2cccc(OC(C)=O)c2OC(C)=O)CCN(CC(=O)NC(C(=O)NC2C(=O)N3C2SC(C)(C)C3C(=O)O)c2ccccc2)C(=O)c2cccc(OC(C)=O)c2OC(C)=O)c1OC(C)=O (centres unmarked) [Example 13, N-{[6-Bis-2,3-(diacetoxybenzoyl)-2-aminoethyl]-3-(2,3-diacetoxybenzoyl)-3,6-diaza-hexanoyl}-ampicillin] | 0.78 µg/mL (≈ 0.652 µM) | 0.1 µg/mL (≈ 0.0836 µM) | 3.12 µg/mL (≈ 2.61 µM) | 0.1 µg/mL (≈ 0.0836 µM) | 0.78 µg/mL (≈ 0.652 µM) | 1.56 µg/mL (≈ 1.3 µM) | 0.2 µg/mL (≈ 0.167 µM) |  |  |  |  |  |  | 
5 | COC(=O)Oc1cccc(C(=O)N(C)CCCN(Cc2ccccc2C(=O)N[C@@H](C(=O)N[C@@H]2C(=O)N3[C@@H]2SC(C)(C)[C@@H]3C(=O)O)c2ccccc2)C(=O)c2cccc(OC(=O)OC)c2OC(=O)OC)c1OC(=O)OC [Example 22, N-{2-[2,6-Bis-(2,3-di-methoxycarbonyloxy-benzoyl)-2,6-diaza-heptyl]-benzoyl}-ampicillin] | 1.56 µg/mL (≈ 1.47 µM) | 0.4 µg/mL (≈ 0.378 µM) | 0.4 µg/mL (≈ 0.378 µM) | 0.2 µg/mL (≈ 0.189 µM) | 0.78 µg/mL (≈ 0.737 µM) | 6.25 µg/mL (≈ 5.91 µM) | <0.05 µg/mL |  |  |  |  |  |  | 
6 | CC(=O)Oc1cccc(C(=O)NCCCN(CCCN(CC(=O)NC(C(=O)NC2C(=O)N3C2SC(C)(C)C3C(=O)O)c2ccccc2)C(=O)c2cccc(OC(C)=O)c2OC(C)=O)C(=O)c2cccc(OC(C)=O)c2OC(C)=O)c1OC(C)=O (centres unmarked) [Example 6, N-[3,7,11-Tris-(2,3-diacetoxybenzoyl)-3,7,11-triaza-undecanoyl]-ampicillin] | 1.56 µg/mL (≈ 1.32 µM) | 0.1 µg/mL (≈ 0.0847 µM) | 1.56 µg/mL (≈ 1.32 µM) | 0.2 µg/mL (≈ 0.169 µM) | 0.78 µg/mL (≈ 0.66 µM) | 6.25 µg/mL (≈ 5.29 µM) | 0.4 µg/mL (≈ 0.339 µM) |  |  |  |  |  |  | 
7 | COC(=O)Oc1cccc(C(=O)N(CCN(CCn2c(=O)oc3c(OC(=O)OC)cccc3c2=O)CCn2c(=O)oc3c(OC(=O)OC)cccc3c2=O)CC(=O)NC(C(=O)NC2C(=O)N3C2SC(C)(C)C3C(=O)O)c2ccccc2)c1OC(=O)OC (centres unmarked) [Example 3, N-[6-Bis[2-(8-methoxycarbonyloxy-benzoxazin-2,4-dion-3-yl)-ethyl]-3-[2,3-di-(methoxycarbonyloxy)-benzoyl]-3,6-diaza-hexanoyl]-ampicillin] | 0.2 µg/mL (≈ 0.163 µM) | <0.05 µg/mL | 0.78 µg/mL (≈ 0.635 µM) | 0.1 µg/mL (≈ 0.0814 µM) | 0.2 µg/mL (≈ 0.163 µM) | 12.5 µg/mL (≈ 10.2 µM) | 0.4 µg/mL (≈ 0.326 µM) |  |  |  |  |  |  | 
8 | CC(=O)Oc1cccc(C(=O)NCCCCCN(CC(=O)NC(C(=O)NC2C(=O)N3C2SC(C)(C)C3C(=O)O)c2ccccc2)C(=O)c2cccc(OC(C)=O)c2OC(C)=O)c1OC(C)=O (centres unmarked) [Example 25, N-[3,9-Bis-(2,3-diacetoxybenzoyl)-3,9-diaza-nonanoyl]-ampicillin] | 0.16 µg/mL (≈ 0.172 µM) | <0.005 µg/mL | 0.16 µg/mL (≈ 0.172 µM) | 0.04 µg/mL (≈ 0.0429 µM) | 0.04 µg/mL (≈ 0.0429 µM) | 2.5 µg/mL (≈ 2.68 µM) | 0.02 µg/mL (≈ 0.0215 µM) |  |  |  |  |  |  | 
9 | CC1(C)S[C@@H]2[C@H](NC(=O)[C@H](NC(=O)N3CCNC3=O)c3ccccc3)C(=O)N2[C@H]1C(=O)O [azlocillin, reference compound] |  |  |  |  |  |  |  | 6.25 µg/mL (≈ 13.5 µM) | 6.25 µg/mL (≈ 13.5 µM) | 6.25 µg/mL (≈ 13.5 µM) | 6.25 µg/mL (≈ 13.5 µM) | 50 µg/mL (≈ 108 µM) | 0.4 µg/mL (≈ 0.867 µM) | 25 µg/mL (≈ 54.2 µM)
10 | COC(=O)Oc1cccc(C(=O)NCC(O)CN(CC(=O)NC(C(=O)NC2C(=O)N3C2SC(C)(C)C3C(=O)O)c2ccccc2)C(=O)c2cccc(OC(=O)OC)c2OC(=O)OC)c1OC(=O)OC (centres unmarked) [Example 14, N-[3,7-Bis-(2,3-dimethoxycarbonyloxybenzoyl)-3,7-diaza-5-hydroxy-heptanoyl]-ampicillin] | 6.25 µg/mL (≈ 6.35 µM) | 0.2 µg/mL (≈ 0.203 µM) | 1.56 µg/mL (≈ 1.59 µM) | 0.1 µg/mL (≈ 0.102 µM) | 1.56 µg/mL (≈ 1.59 µM) | 0.4 µg/mL (≈ 0.407 µM) | 0.4 µg/mL (≈ 0.407 µM) |  |  |  |  |  |  | 
11 | CC(=O)Oc1cccc(C(=O)NCCCN(CC(=O)NC(C(=O)NC2C(=O)N3C2SC(C)(C)C3C(=O)O)c2ccccc2)C(=O)c2cccc(OC(C)=O)c2OC(C)=O)c1OC(C)=O (centres unmarked) [Example 24, N-[3,7-Bis-(2,3-diacetoxybenzoyl)-3,7-diaza-heptanoyl]-ampicillin] | 3.12 µg/mL (≈ 3.45 µM) | 0.2 µg/mL (≈ 0.221 µM) | 3.12 µg/mL (≈ 3.45 µM) | 3.12 µg/mL (≈ 3.45 µM) | 0.78 µg/mL (≈ 0.863 µM) | 3.12 µg/mL (≈ 3.45 µM) | 0.2 µg/mL (≈ 0.221 µM) |  |  |  |  |  |  | 
